Experiments:
[1] = target: c-Src tyrosine kinase (Homo sapiens (Human), UniProt P12931); assay: in vitro c-Src tyrosine kinase inhibition (32P-ATP, poly(D4Y)n substrate); format: biochemical; settings: 1 uM compound; read-out: % inhibition against c-Src
[2] = target: DDR2 tyrosine kinase (Homo sapiens (Human), UniProt Q16832); assay: in vitro DDR2 tyrosine kinase inhibition (GST-fused kinase domain); format: biochemical; settings: 1 uM compound; read-out: % inhibition against DDR2
[3] = target: Hck tyrosine kinase (Homo sapiens (Human), UniProt P08631); assay: in vitro Hck tyrosine kinase inhibition; format: biochemical; settings: 1 uM compound; read-out: % inhibition against Hck
[4] = system: NO synthesis in J744A.1 macrophage; assay: inhibition of nitric oxide (NO) synthesis in LPS-activated macrophages (Griess reagent); format: cell-based; settings: 10 μM compound, LPS, 24 hours, read-out: Inhibition (%) of NO synthesis
[5] = target: Fgr tyrosine kinase (Homo sapiens (Human), UniProt P09769); assay: in vitro Fgr tyrosine kinase inhibition; format: biochemical; settings: 1 uM compound; read-out: % inhibition against Fgr
[6] = target: DDR1 tyrosine kinase (Homo sapiens (Human), UniProt Q08345); assay: in vitro DDR1 tyrosine kinase inhibition (GST-fused kinase domain); format: biochemical; settings: 1 uM compound; read-out: % inhibition against DDR1
[7] = system: oxazolone-induced skin inflammation of Balb/C mouse ears; assay: mouse skin inflammatory model induced by oxazolone (ear thickness); format: in vivo; settings: 20 ul of 0.1% compound topical on ear, 36 hours after oxazolone
Procedure: The compounds of the present invention were evaluated for their effective anti-inflammatory activity using a skin inflammatory animal model of 8 weeks old Balb/C mouse ears induced by oxazolone. […] After 4 days, the thickness of ear was measured using a caliper for the thickness value of ear before the induction of inflammation. […] After 36 hours, the thickness of ear was measured for the increased thickness induced by inflammation. […] The average value was obtained in each group (n=4).

[8] = system: α-smooth muscle actin protein expression in skin fibroblast cells; assay: inhibition of α-smooth muscle actin expression in fibroblast activated by type I collagen and TGF-β1 (western blotting); format: cell-based, Balb/C mouse; settings: Mus musculus, 0.5 uM compound, 10 ng/ml TGF-β1, 48 hours, type I collagen, read-out: Inhibition (%) of α-smooth muscle actin increase
From the text: When fibroblast, […] alpha smooth muscle cells are converted to myofibroblast by activation, one of characteristic features is that α-smooth muscle actin protein expression is increased. Also myoblast cells with the increased α-smooth muscle actin expression have a character of an increased migration. These phenomena appear together with the activation of inflammatory cells and the activated myoblast-type cells are known to contribute directly to the pathology of inflammatory diseases. […] In this experiment, the expression level of alpha smooth muscle actin can be quantificated by measuring the density of α-smooth muscle actin protein band with densitometer after developing the X-ray film of chemiluminescence signal in western blotting experiment.

[9] = system: TNF-α synthesis in J744A.1 macrophages; assay: inhibition of TNF-α synthesis in LPS-activated macrophages (ELISA); format: cell-based; settings: Macrophage; 10 μM compound, 100 ng/ml LPS, 6 hours; read-out: Inhibition (%) of TNF-α synthesis
[10] = system: mouse skin fibroblast; assay: inhibition of migration of activated fibroblast (scratch wound); format: cell-based; settings: 0.5 uM compound, 10 ng/ml TGF-β1, 24 hours, read-out: Inhibition (%) of migration of activated fibroblast
Procedure: The straight line of regular width was made using a micro pipette tip for a scratch wound on the mono-layer culture, and then the culture was exchanged to DMEM medium and incubated with 10 ng/ml of TGF-β1 in cell culture incubator of 37° C. for 24 hours. The cultured cells were fixed using formalin and stained with crystal violet. Photo-pictures were taken at 100× magnification in five location selected randomly in the scratched wound site of each stained culture dish and then the number of the cells moved into the scratched wound area was counted and averaged.

[11] = target: Lyn tyrosine kinase (Homo sapiens (Human), UniProt P07948); assay: in vitro Lyn tyrosine kinase inhibition; format: biochemical; settings: 1 uM compound; read-out: % inhibition against Lyn
Chain of Lyn tyrosine kinase (P07948 whole entry): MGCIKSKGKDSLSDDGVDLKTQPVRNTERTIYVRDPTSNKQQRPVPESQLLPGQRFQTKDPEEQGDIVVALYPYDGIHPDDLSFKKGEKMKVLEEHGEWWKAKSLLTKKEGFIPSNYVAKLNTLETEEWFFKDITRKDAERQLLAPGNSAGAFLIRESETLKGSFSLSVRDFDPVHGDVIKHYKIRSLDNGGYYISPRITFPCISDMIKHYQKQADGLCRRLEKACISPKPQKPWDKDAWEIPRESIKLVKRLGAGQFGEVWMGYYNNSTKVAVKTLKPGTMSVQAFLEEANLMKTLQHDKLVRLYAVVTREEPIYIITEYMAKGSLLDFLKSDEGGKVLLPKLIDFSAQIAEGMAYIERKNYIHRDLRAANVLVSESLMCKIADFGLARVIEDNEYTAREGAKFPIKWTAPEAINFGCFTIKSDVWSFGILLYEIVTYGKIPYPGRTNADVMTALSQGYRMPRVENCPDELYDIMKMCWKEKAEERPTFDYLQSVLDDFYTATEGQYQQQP

Chain of Fgr tyrosine kinase (P09769 whole entry, the tested form may be a part): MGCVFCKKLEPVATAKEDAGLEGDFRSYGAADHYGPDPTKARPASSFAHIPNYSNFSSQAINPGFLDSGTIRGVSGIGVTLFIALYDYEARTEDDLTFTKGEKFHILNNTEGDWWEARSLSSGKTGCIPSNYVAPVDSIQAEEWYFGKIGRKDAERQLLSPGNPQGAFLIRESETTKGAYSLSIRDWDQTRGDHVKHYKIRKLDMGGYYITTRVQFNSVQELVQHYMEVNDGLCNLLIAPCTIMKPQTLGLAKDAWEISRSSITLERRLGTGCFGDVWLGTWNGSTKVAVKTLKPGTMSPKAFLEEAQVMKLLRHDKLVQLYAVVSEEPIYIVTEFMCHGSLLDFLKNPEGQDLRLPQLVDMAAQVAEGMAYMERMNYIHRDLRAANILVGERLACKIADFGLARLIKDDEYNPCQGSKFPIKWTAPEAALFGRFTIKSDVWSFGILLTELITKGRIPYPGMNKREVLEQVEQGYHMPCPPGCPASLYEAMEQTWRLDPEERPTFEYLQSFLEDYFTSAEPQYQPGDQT
Chain of DDR2 tyrosine kinase (Q16832 563-849): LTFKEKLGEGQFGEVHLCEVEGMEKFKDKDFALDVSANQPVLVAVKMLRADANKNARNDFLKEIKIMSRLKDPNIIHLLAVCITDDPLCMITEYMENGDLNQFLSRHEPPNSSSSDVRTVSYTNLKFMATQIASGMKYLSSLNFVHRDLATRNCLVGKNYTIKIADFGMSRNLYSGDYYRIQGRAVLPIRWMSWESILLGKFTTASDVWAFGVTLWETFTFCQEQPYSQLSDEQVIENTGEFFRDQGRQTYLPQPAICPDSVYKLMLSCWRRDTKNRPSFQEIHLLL
Chain of c-Src tyrosine kinase (P12931 whole entry, looked up, the tested form may be a part): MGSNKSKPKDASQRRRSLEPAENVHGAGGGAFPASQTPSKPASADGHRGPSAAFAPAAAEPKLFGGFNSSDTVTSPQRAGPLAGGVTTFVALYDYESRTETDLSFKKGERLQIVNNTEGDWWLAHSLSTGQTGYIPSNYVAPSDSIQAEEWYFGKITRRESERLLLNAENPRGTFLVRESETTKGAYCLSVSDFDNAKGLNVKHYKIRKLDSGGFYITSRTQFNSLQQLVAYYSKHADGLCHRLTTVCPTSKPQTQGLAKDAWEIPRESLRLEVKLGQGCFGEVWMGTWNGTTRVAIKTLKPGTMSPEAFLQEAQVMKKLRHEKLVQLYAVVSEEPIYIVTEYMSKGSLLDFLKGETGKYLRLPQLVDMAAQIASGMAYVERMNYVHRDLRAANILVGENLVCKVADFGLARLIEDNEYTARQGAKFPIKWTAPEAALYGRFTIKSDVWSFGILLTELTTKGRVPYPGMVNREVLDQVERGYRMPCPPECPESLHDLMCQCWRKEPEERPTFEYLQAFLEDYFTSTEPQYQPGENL
Chain of Hck tyrosine kinase (P08631 whole entry): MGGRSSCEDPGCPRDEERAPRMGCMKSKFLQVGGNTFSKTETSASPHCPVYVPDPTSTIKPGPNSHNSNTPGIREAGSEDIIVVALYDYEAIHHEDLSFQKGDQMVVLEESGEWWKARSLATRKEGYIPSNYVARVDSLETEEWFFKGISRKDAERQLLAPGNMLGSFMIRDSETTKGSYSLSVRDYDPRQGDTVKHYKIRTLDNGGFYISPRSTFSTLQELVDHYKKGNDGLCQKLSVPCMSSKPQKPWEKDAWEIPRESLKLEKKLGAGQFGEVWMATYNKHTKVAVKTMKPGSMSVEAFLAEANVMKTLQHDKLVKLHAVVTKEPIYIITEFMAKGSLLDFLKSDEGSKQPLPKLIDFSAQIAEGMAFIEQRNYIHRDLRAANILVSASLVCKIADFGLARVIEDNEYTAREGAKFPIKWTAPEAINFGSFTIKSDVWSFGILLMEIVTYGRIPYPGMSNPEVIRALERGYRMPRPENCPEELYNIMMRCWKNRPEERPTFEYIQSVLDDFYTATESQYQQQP
Chain of DDR1 tyrosine kinase (Q08345 610-905): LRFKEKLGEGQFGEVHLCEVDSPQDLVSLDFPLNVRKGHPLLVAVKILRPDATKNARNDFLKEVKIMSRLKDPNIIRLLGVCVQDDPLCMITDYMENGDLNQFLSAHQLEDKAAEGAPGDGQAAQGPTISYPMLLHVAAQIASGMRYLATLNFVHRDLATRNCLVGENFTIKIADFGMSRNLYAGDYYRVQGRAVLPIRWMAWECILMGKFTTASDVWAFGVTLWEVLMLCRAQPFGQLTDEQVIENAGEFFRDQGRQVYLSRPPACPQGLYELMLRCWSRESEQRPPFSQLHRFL

Oc1cccc(Nc2ncnc3cc(-c4ccc(CN5CCCCC5)cc4)sc23)c1 [LCB 03-0035, 3-(6-(4-(piperidin-1-ylmethyl)phenyl)thieno[3,2-d]pyrimidin-4-ylamino)phenol]
inhibition at 1 µM [1]: > 80% | inhibition at 1 µM [2]: > 80% | inhibition at 1 µM [3]: > 80% | inhibition at 10 µM [4]: 91% | inhibition at 1 µM [5]: > 80% | inhibition at 1 µM [6]: > 80% | Inhibition (%) of increase of ear thickness [7]: 31% | inhibition at 0.5 µM [8]: 55% | inhibition at 10 µM [9]: 65% | inhibition at 0.5 µM [10]: 31% | inhibition at 1 µM [11]: > 80%

CN1CCN(Cc2ccc(-c3cc4ncnc(Nc5cccc(O)c5)c4s3)cc2)CC1 [LCB 03-0036, 3-(6-(4-((4-methylpiperazin-1-yl)methyl)phenyl)thieno[3,2-d]pyrimidin-4-ylamino)phenol]
inhibition at 1 µM [1]: > 80% | inhibition at 1 µM [2]: > 80% | inhibition at 1 µM [3]: > 80% | inhibition at 10 µM [4]: 81% | inhibition at 1 µM [5]: > 80% | inhibition at 1 µM [6]: > 80% | Inhibition (%) of increase of ear thickness [7]: 28% | inhibition at 0.5 µM [8]: 63% | inhibition at 10 µM [9]: 61% | inhibition at 0.5 µM [10]: 39% | inhibition at 1 µM [11]: > 80%

CCN(CC)Cc1ccc(-c2cc3ncnc(Nc4cccc(O)c4)c3s2)cc1 [LCB 03-0037]
inhibition at 1 µM [1]: > 80% | inhibition at 1 µM [2]: > 80% | inhibition at 1 µM [3]: > 80% | inhibition at 10 µM [4]: 93% | inhibition at 1 µM [5]: > 70% | inhibition at 1 µM [6]: > 80% | Inhibition (%) of increase of ear thickness [7]: 33% | inhibition at 0.5 µM [8]: 55% | inhibition at 10 µM [9]: 73% | inhibition at 0.5 µM [10]: 37% | inhibition at 1 µM [11]: > 80%

Oc1cccc(Nc2ncnc3cc(-c4ccc(CNC5CC5)cc4)sc23)c1 [LCB 03-0040]
inhibition at 1 µM [1]: > 80% | inhibition at 1 µM [2]: > 80% | inhibition at 1 µM [3]: > 80% | inhibition at 10 µM [4]: 93% | inhibition at 1 µM [5]: > 80% | inhibition at 1 µM [6]: > 80% | Inhibition (%) of increase of ear thickness [7]: 31% | inhibition at 0.5 µM [8]: 55% | inhibition at 10 µM [9]: 84% | inhibition at 0.5 µM [10]: 43% | inhibition at 1 µM [11]: > 80%

CC(C)CNCc1ccc(-c2cc3ncnc(Nc4cccc(O)c4)c3s2)cc1 [LCB 03-0041]
inhibition at 1 µM [1]: > 80% | inhibition at 1 µM [2]: > 80% | inhibition at 1 µM [3]: > 80% | inhibition at 10 µM [4]: 91% | inhibition at 1 µM [5]: > 80% | inhibition at 1 µM [6]: > 80% | Inhibition (%) of increase of ear thickness [7]: 29% | inhibition at 0.5 µM [8]: 66% | inhibition at 10 µM [9]: 87% | inhibition at 0.5 µM [10]: 39% | inhibition at 1 µM [11]: > 80%

CCNCc1ccc(-c2cc3ncnc(Nc4cccc(O)c4)c3s2)cc1 [LCB 03-0042]
inhibition at 1 µM [1]: > 80% | inhibition at 1 µM [2]: > 80% | inhibition at 1 µM [3]: > 80% | inhibition at 10 µM [4]: 91% | inhibition at 1 µM [5]: > 80% | inhibition at 1 µM [6]: > 80% | Inhibition (%) of increase of ear thickness [7]: 33% | inhibition at 0.5 µM [8]: 69% | inhibition at 10 µM [9]: 98% | inhibition at 0.5 µM [10]: 46% | inhibition at 1 µM [11]: > 80%

C[C@@H]1CCC[C@H](C)N1Cc1ccc(-c2cc3ncnc(Nc4cccc(O)c4)c3s2)cc1.Cl [LCB 03-0059, 3-(6-(4-(((2R,6S)-2,6-dimethylpiperidin-1-yl)methyl)phenyl)thieno[3,2-d]pyrimidin-4-ylamino)phenol]
inhibition at 1 µM [1]: > 50% | inhibition at 1 µM [2]: > 80% | inhibition at 1 µM [3]: > 50% | inhibition at 10 µM [4]: 88% | inhibition at 1 µM [5]: > 50% | inhibition at 1 µM [6]: > 80% | Inhibition (%) of increase of ear thickness [7]: 59% | inhibition at 0.5 µM [8]: 56% | inhibition at 10 µM [9]: 74% | inhibition at 0.5 µM [10]: 29% | inhibition at 1 µM [11]: > 50%

Cl.Oc1cccc(Nc2ncnc3cc(-c4cccc(CN5CCCCC5)c4)sc23)c1 [LCB 03-0060, 3-(6-(3-(piperidin-1-ylmethyl)phenyl)thieno[3,2-d]pyrimidin-4-ylamino)phenol]
inhibition at 1 µM [1]: > 80% | inhibition at 1 µM [2]: > 80% | inhibition at 1 µM [3]: > 80% | inhibition at 10 µM [4]: 93% | inhibition at 1 µM [5]: > 80% | inhibition at 1 µM [6]: > 80% | Inhibition (%) of increase of ear thickness [7]: 66% | inhibition at 0.5 µM [8]: 65% | inhibition at 10 µM [9]: 78% | inhibition at 0.5 µM [10]: 42% | inhibition at 1 µM [11]: > 80%

— patent US9062066B2, “Anti-inflammatory compound having inhibitory activity against multiple tyrosine kinases and pharmaceutical composition containing same” (KOREA INSTITUTE OF SCIENCE AND TECHNOLOGY, priority 2010, dated 2015)
